In paper PMC12316891, “A bottom-up approach to find lead compounds in expansive chemical spaces” (Communications Chemistry, 2025):
Read-outs that look alike come from different tables or passages of the source.

How the values were obtained:
His6-BRD4 (BD1) = molecular target: T1, His6-BRD4 (BD1) (Homo sapiens, UniProt O60885); experiment: Surface plasmon resonance (SPR) single-dose screening; assay type: binding; parameters: key to SPR RESULT: Positive: compounds were considered as SPR hits also when their average signal was further than two standard deviations apart from the average signal of the blank samples (1% DMSO); settings: for RUs at [10 µM]: SPR, compound 10 µM, 1% DMSO, n = 2, decimal comma; for SPR RESULT: single dose 10 µM, n = 2
T1 construct: A pET28 plasmid containing residues 44–168 of BRD4 (BD1), a 6xHis tag, a TEV protease cleavage site; made in house; host or cells: E. coli Rosetta (D3)

BRD4 (BD1) [1] = molecular target: T2, BRD4 (BD1) (Homo sapiens, UniProt O60885); experiment: Differential scanning fluorimetry (DSF) single-dose thermal shift screening; assay type: binding; settings: for ΔTm at 10 µM: read-out: ΔTm ºC at [10 µM]
T2 construct: A pET28 plasmid containing residues 44–168 of BRD4 (BD1), a 6xHis tag, a TEV protease cleavage site; 6xHis (N, cleaved yes); made in house; host or cells: E. coli Rosetta (D3)

BRD4 (BD1) [2] = molecular target: T2, BRD4 (BD1); experiment: Competitive HTRF TR-FRET binding assay (displacement of acetylated histone H4 peptide); settings: 16-point titration 0.1 nM to 10 µM, n = 2, Negative = curve could not be fitted to a sigmoidal curve; for IC50: read-out: TR-FRET IC50
Experimental: To further quantitatively characterize the DSF/SPR hits compounds obtained in the single-dose screenings, we selected HTRF TR-FRET. Specifically, we employed a competitive HTRF TR-FRET experiment to measure the compound’s capacity to displace an acetylated peptide from the binding site of BRD4 (BD1). For each molecule, a 16-point concentration curve was titrated against the peptide-BRD (BD1) complex and incubated for 1.5 h. A compound was considered a positive binder if we could fit its titration curve to a sigmoidal curve to determine its IC50. […] Compound screening was carried out in 384-well, white, round-bottom, small-volume plates (CORNING) in a final volume of 20 µL of 50 mM HEPES (pH 7.4), 50 mM NaCl, 400 mM KF, 0.5 mM CHAPS, and 0.05% BSA. […] Then, the labeled anti-His6-XL665 antibody (CisBio) (10 nM) was added to the mixture and incubated for 15 min, before the Eu3+ cryptate-conjugated streptavidin (2 nM) (CisBio) was added and incubated for 15 min. All incubations were performed at room temperature. […] Titration of (+)−JQ1 was used as a positive control for each experiment.

[3] = DSF, compound 10 µM, BRD4 (BD1) 2 µM, n = 3, decimal comma

SMILES | RUs at [10 µM] (His6-BRD4 (BD1)) | ΔTm at 10 µM (BRD4 (BD1) [1]) | TR-FRET IC50 (nM) (BRD4 (BD1) [2]) | ΔTm ºC at [10 µM] (BRD4 (BD1) [1]; [3]) | SPR RESULT (His6-BRD4 (BD1)) | IC50 (BRD4 (BD1) [2]) | ΔTm at 10 µM (BRD4 (BD1) [1]; [3])
COc1cc2c(cc1-c1c(C)noc1C)ncc1[nH]c(=O)n([C@H](C)c3ccccn3)c12 [Compound 2, CC1=C(C(=NO1)C)C2=C(C=C3C(=C2)N=CC4=C3N(C(=O)N4)C(C)C5=CC=CC=N5)OC, reference compound] | 95,35 ± 25,76 RUs |  |  |  |  |  | 
Cc1sc2c(c1C)C(c1ccc(Cl)cc1)=NC(CC(=O)OC(C)(C)C)c1nnc(C)n1-2 (stereo not shown) [Compound 3, CC1=C(SC2=C1C(=NC(C3=NN=C(N32)C)CC(=O)OC(C)(C)C)C4=CC=C(C=C4)Cl)C, reference compound] | 99,15 ± 6,82 RUs | 9.28 °C |  |  |  |  | 
COc1ccc(-n2c(C)nnc2SCC(=O)Nc2ccc(C)c(Cl)c2Cl)cc1 [Compound 12, COC=1C=CC(=CC1)N2C(C)=NN=C2SCC(=O)NC=3C=CC(C)=C(Cl)C3Cl] | 78,35 ± 18,49 RUs |  | Negative | -0,57 ± 0,38 ºC | Positive |  | 
Cn1ccnc1C1CCN(C(=O)c2nn(C)c(=O)c3ccccc23)C1 (stereo not shown) [Compound 13, CN1C=CN=C1C2CCN(C2)C(=O)C3=NN(C)C(=O)C=4C=CC=CC34] | 5,53 ± 2,74 RUs |  |  |  | Negative | 1.46 nM | 0.45 °C
COc1ccc(NS(=O)(=O)c2cc(C(=O)Nc3ccc4nnc(C(C)C)n4c3)ccc2F)cc1 [Compound 14, COC=1C=CC(NS(=O)(=O)C=2C=C(C=CC2F)C(=O)NC=3C=CC4=NN=C(C(C)C)N4C3)=CC1] | 23,29 ± 9,67 RUs |  |  |  | Negative | 661 nM | 1.94 °C
COc1ccc2c(c1)N(C(=O)c1cn(C)c(=O)c3ccccc13)CC2 [Compound 15, COC=1C=CC=2CCN(C(=O)C3=CN(C)C(=O)C=4C=CC=CC34)C2C1] | 28,19 ± 22,85 RUs |  |  |  | Negative | 1010 nM | 1.71 °C
CCCc1c(C(=O)NCc2cccc3c2OCCO3)[nH]c(C)c1C(C)=O [Compound 16, CCCC1=C(NC(C)=C1C(=O)C)C(=O)NCC=2C=CC=C3OCCOC23] | 20,24 ± 10,15 RUs |  |  |  | Negative | 1090 nM | -0.43 °C
COc1ccc(-n2c(C)nnc2SCC(=O)Nc2cn(C)nc2C(N)=O)cc1 [Compound 17, COC=1C=CC(=CC1)N2C(C)=NN=C2SCC(=O)NC3=CN(C)N=C3C(=O)N] | 9,07 ± 0,52 RUs |  |  |  | Positive | 192 nM | 1.17 °C
COc1ccc(C2(NCC(=O)Nc3cc(-n4nnnc4C)ccc3F)CCOCC2)cc1 [Compound 18, COC=1C=CC(=CC1)C2(CCOCC2)NCC(=O)NC=3C=C(C=CC3F)N4N=NN=C4C] | 2,91 ± 1,98 RUs |  |  |  | Negative | 1140 nM | -0.7 °C
COc1ccc(-n2c(C)nnc2SCC(=O)NCc2ccc(F)c(C)c2)cc1 [Compound 19, COC=1C=CC(=CC1)N2C(C)=NN=C2SCC(=O)NCC=3C=CC(F)=C(C)C3] | 33,98 ± 20,29 RUs |  |  |  | Negative | 543 nM | 1.36 °C
Cc1ccc(CNC(=O)c2ccc3nnc(C)c(C)c3c2)c(OC2CCOC2)c1 (stereo not shown) [Compound 20, CC=1C=CC(CNC(=O)C=2C=CC=3N=NC(C)=C(C)C3C2)=C(OC4CCOC4)C1] | 41,88 ± 12,55 RUs |  | Negative |  | Positive |  | 2.33 °C
CCOc1ccc(-n2nc(Cc3ccncc3)nc2-c2cn(C)c(=O)c3ccccc23)cc1 [Compound 21, CCOC=1C=CC(=CC1)N2N=C(CC=3C=CN=CC3)N=C2C4=CN(C)C(=O)C=5C=CC=CC45] | 38,73 ± 19,2 RUs |  |  |  | Negative | 552 nM | 2.33 °C
CCCc1c(C(=O)N2CCOC(Cn3cc(-c4ccsc4)nn3)C2)[nH]c(C)c1C(C)=O (stereo not shown) [Compound 22, CCCC1=C(NC(C)=C1C(=O)C)C(=O)N2CCOC(CN3C=C(N=N3)C=4C=CSC4)C2] | 20,06 ± 0,43 RUs |  |  |  | Positive | 46 nM | 2.02 °C
CC(C)=CC(=O)NCCC1CCN(C(=O)c2cn(C)c(=O)c3ccccc23)C1 (stereo not shown) [Compound 23, CC(=CC(=O)NCCC1CCN(C1)C(=O)C2=CN(C)C(=O)C=3C=CC=CC23)C] | 5,93 ± 1,05 RUs |  |  |  | Negative | 3.44 nM | 2.61 °C
Cc1nn(C)cc1C(=O)NC1CCC2(CC1)CCN(C(=O)c1sc3nnc(C)c(C)c3c1N)CC2 [Compound 24, CC1=NN(C)C=C1C(=O)NC2CCC3(CC2)CCN(CC3)C(=O)C=4SC=5N=NC(C)=C(C)C5C4N] | 40,95 ± 7,16 RUs |  |  |  | Positive | 1760 nM | 2.35 °C
CCCc1c(C(=O)N2CCC(F)(F)C(CNC(=O)c3nc(C)c(C)s3)C2)[nH]c(C)c1C(C)=O (stereo not shown) [Compound 25, CCCC1=C(NC(C)=C1C(=O)C)C(=O)N2CCC(F)(F)C(CNC(=O)C3=NC(C)=C(C)S3)C2] | 22,43 ± 8,33 RUs |  |  |  | Negative | 149 nM | 2.41 °C
CCCc1c(C(=O)N2CCOC(CN(C)C(=O)c3cccn3C)C2)[nH]c(C)c1C(C)=O (stereo not shown) [Compound 26, CCCC1=C(NC(C)=C1C(=O)C)C(=O)N2CCOC(CN(C)C(=O)C3=CC=CN3C)C2] | 22,04 ± 8,53 RUs |  |  |  | Negative | 1020 nM | 2.61 °C
COc1cccc(-n2c(C)nnc2SCC(=O)NC2(CO)CCCCCCC2)c1 [Compound 27, COC=1C=CC=C(C1)N2C(C)=NN=C2SCC(=O)NC3(CO)CCCCCCC3] | 28,33 ± 20,88 RUs | -0.98 °C | Negative |  | Negative |  | 
COc1ccc(-n2c(C)nnc2SCC(=O)NCC2(N)CCOCC2)cc1 [Compound 28, COC=1C=CC(=CC1)N2C(C)=NN=C2SCC(=O)NCC3(N)CCOCC3] | 16,66 ± 3,56 RUs |  | Negative |  | Positive |  | 0.36 °C
CC(=O)c1c(C)[nH]c(C(=O)N2CCCC(c3cn(CC4CC5CC5C4)nn3)C2)c1C (stereo not shown) [Compound 29, CC(=O)C1=C(C)NC(C(=O)N2CCCC(C2)C3=CN(CC4CC5CC5C4)N=N3)=C1C] |  |  | Negative |  | Negative |  | -1.17 °C
COc1cccc(-n2c(C)nnc2SCC(=O)N2CCCN(C(=O)c3cc(F)c[nH]3)CC2)c1 [Compound 30, COC=1C=CC=C(C1)N2C(C)=NN=C2SCC(=O)N3CCCN(CC3)C(=O)C4=CC(F)=CN4] | 17,68 ± 18,73 RUs |  | Negative |  | Negative |  | 0.43 °C
CCn1nnc2cc(C(=O)N3CCC(CCNC(=O)c4nc(O)sc4C)C3)ccc21 (stereo not shown) [Compound 31, CCN1N=NC=2C=C(C=CC12)C(=O)N3CCC(CCNC(=O)C=4N=C(O)SC4C)C3] | 8,73 ± 4,6 RUs |  | Negative |  | Negative |  | 0.02 °C
COc1cccc(-n2c(C)nnc2SCC(=O)NC2CN(C(=O)C3CCOCC3)CC23CC3)c1 (stereo not shown) [Compound 32, COC=1C=CC=C(C1)N2C(C)=NN=C2SCC(=O)NC3CN(CC43CC4)C(=O)C5CCOCC5] | 3,3 ± 1,9 RUs |  |  |  | Negative | 386 nM | 0.87 °C
CCCc1c(C(=O)N2CCC(Cc3cn(-c4cccc(F)c4C)nn3)C2)[nH]c(C)c1C(C)=O (stereo not shown) [Compound 33, CCCC1=C(NC(C)=C1C(=O)C)C(=O)N2CCC(CC3=CN(N=N3)C=4C=CC=C(F)C4C)C2] | 8,85 ± 1,09 RUs |  | Negative |  | Negative |  | 0.1 °C
CCn1nnc2cc(C(=O)N3CCCN(C(=O)c4ccccc4Cl)C(c4ccccc4)C3)ccc21 (stereo not shown) [Compound 34, CCN1N=NC=2C=C(C=CC12)C(=O)N3CCCN(C(C3)C=4C=CC=CC4)C(=O)C=5C=CC=CC5Cl] | 23,05 ± 1,41 RUs |  |  |  | Positive | 1210 nM | 0.86 °C
COc1cccc(-n2c(C)nnc2SCC(=O)N2CC3CCC2CN3C(=O)c2ccns2)c1 (stereo not shown) [Compound 35, COC=1C=CC=C(C1)N2C(C)=NN=C2SCC(=O)N3CC4CCC3CN4C(=O)C5=CC=NS5] | 13,78 ± 5,32 RUs |  |  |  | Negative | 1070 nM | 0.69 °C
CCn1nnc2cc(C(=O)N3CCC(N(C)C(=O)C4CN(C)CCO4)C3)ccc21 (stereo not shown) [Compound 36, CCN1N=NC=2C=C(C=CC12)C(=O)N3CCC(C3)N(C)C(=O)C4CN(C)CCO4] | 6,83 ± 2,31 RUs |  | Negative |  | Negative |  | 0.34 °C
COc1cccc(-n2c(C)nnc2SCC(=O)N2CC(n3cc(-c4ccc(F)cn4)nn3)C2)c1 [Compound 37, COC=1C=CC=C(C1)N2C(C)=NN=C2SCC(=O)N3CC(C3)N4C=C(N=N4)C=5C=CC(F)=CN5] | 12,42 ± 11,24 RUs |  | Negative |  | Negative |  | 0.77 °C
Cc1cc(C)n2nc(NC(=O)N3CCC(F)(F)C4(CCOC4)C3)nc2n1 (stereo not shown) [Compound 68, CC=1C=C(C)N2N=C(NC(=O)N3CCC(F)(F)C4(CCOC4)C3)N=C2N1] | 9,66 ± 4,71 RUs |  |  |  | Negative |  | 1.11 °C
